# Source: US20240174618A1, “SUBSTITUTED (2-HETEROARYLOXYPHENYL)SULFONATES, SALTS THEREOF AND THEIR USE AS HERBICIDAL AGENTS” (Bayer Aktiengesellschaft, priority 2021, published 2024)
# Key:
# Format in all cases: in vivo
# [1] = tested on: Veronica persica (VERPE); assay: A. Herbicidal pre-emergence efficacy, VERPE
# Outline: (§1)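 Applied before emergence onto covering soil at rates of 1280 g/ha or less, using 600 L/ha spray water with 0.5% additive. Scoring: visual % efficacy after ~3 weeks, greenhouse.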
# [2] = tested on: Stellaria media (STEME); assay: B. Herbicidal post-emergence efficacy, STEME
# Outline: (§2)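 Readout: visual % kill vs untreated, ~3 wk post-spray. Plants in sandy loam pots, treated at one-leaf stage; spray = WP/EC in water + 0.5% additive, 600 L/ha, dose ≤1280 g/ha.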
# [3] = tested on: Polygonum convolvulus (POLCO); assay: E. Herbicidal post-emergence efficacy, POLCO; conditions: application rate 320 g/ha
# Protocol: (§3) Seeds of monocotyledonous and dicotyledonous weeds and crop plants were placed in sandy loam in plastic or organic planting pots, covered with soil and cultivated in a greenhouse under controlled growth conditions. 2 to 3 weeks after sowing, the test plants were treated at the one-leaf stage. The compounds of the invention, formulated in the form of wettable powders (WP) or as emulsion concentrates (EC), were then sprayed onto the green parts of the plants as aqueous suspension or emulsion with addition of 0.5% additive at a water application rate of 600 l/ha (converted). After the test plants had been kept in the greenhouse under optimum growth conditions for about 3 weeks, the activity of the preparations was rated visually in comparison to untreated controls.
# (§4) For example, • 100% efficacy=plants have died, • 0% action=like untreated control plants.
# (§5) Tables E1a to E12b below show the effects of selected compounds of the general formula (I) according to table 1 on various harmful plants at an application rate corresponding to 320 g/ha or less, which were obtained by the experimental procedure mentioned above.
# [4] = tested on: Echinochloa crus-galli (ECHCG); assay: C. Herbicidal pre-emergence efficacy, ECHCG; conditions: scored after about 3 weeks
# Excerpt: (§6) Seeds of monocotyledonous and dicotyledonous weed plants and crop plants were placed in plastic or organic planting pots and covered with soil. The compounds of the invention, formulated in the form of wettable powders (WP) or as emulsion concentrates (EC), were then applied to the surface of the covering soil as aqueous suspension or emulsion with addition of 0.5% additive at a water application rate equivalent to 600 l/ha (converted). After the treatment, the pots were placed in a greenhouse and kept under good growth conditions for the test plants. After about 3 weeks, the efficacy of the preparations was scored visually in comparison with untreated controls as percentages. For example, • 100% efficacy=plants have died, • 0% efficacy=like untreated control plants.
# (§7) Tables C1a to C14b below show the effects of selected compounds of the general formula (I) according to table 1 on various harmful plants at an application rate corresponding to 320 g/ha or less, which were obtained by the experimental procedure mentioned above.
# [5] = tested on: Veronica persica (VERPE); assay: B. Herbicidal post-emergence efficacy, VERPE
# Outline: as §2
# [6] = tested on: Echinochloa crus-galli (ECHCG); assay: A. Herbicidal pre-emergence efficacy, ECHCG; conditions: scored visually after about 3 weeks vs untreated controls
# Outline: as §1
# [7] = tested on: Pharbitis purpurea (PHBPU); assay: E. Herbicidal post-emergence efficacy, PHBPU
# Protocol: as §3, §4, §5
# [8] = tested on: Abutilon theophrasti (ABUTH); assay: C. Herbicidal pre-emergence efficacy, ABUTH; conditions: scored after about 3 weeks
# Excerpt: as §6, §7
SMILES,Pre-emergence efficacy against VERPE in % ([1]; 1280 g/ha) [%],Post-emergence efficacy against STEME ([2]; 1280 g/ha) [%],Post-emergence efficacy against POLCO in % [3] [%],Pre-emergence efficacy against ECHCG ([4]; 320 g/ha) [%],Post-emergence efficacy against VERPE ([5]; 1280 g/ha) [%],Pre-emergence efficacy against ECHCG ([6]; 1280 g/ha) [%],Pre-emergence efficacy against VERPE in % ([1]; 320 g/ha) [%],Post-emergence efficacy against STEME ([2]; 80 g/ha) [%],Post-emergence efficacy against STEME ([2]; 320 g/ha) [%],Post-emergence efficacy against VERPE ([5]; 80 g/ha) [%],Post-emergence efficacy against VERPE ([5]; 320 g/ha) [%],Post-emergence efficacy against PHBPU in % ([7]; application rate 320 g/ha) [%],Pre-emergence efficacy against ECHCG ([6]; 320 g/ha) [%],Pre-emergence efficacy against ABUTH ([8]; 80 g/ha) [%],Pre-emergence efficacy against ABUTH ([8]; 320 g/ha) [%],Pre-emergence efficacy against ECHCG ([4]; 80 g/ha) [%],Pre-emergence efficacy against ECHCG ([6]; 80 g/ha) [%],Post-emergence efficacy against PHBPU in % ([7]; application rate 80 g/ha) [%],Pre-emergence efficacy against VERPE ([1]; dosage 80 g/ha) [%]
O=S(=O)(CCl)Oc1ccccc1Oc1ncc(Cl)cn1 [Example I-9],100,90,90,90,100,100,,,,,,,,,,,,,
O=S(=O)(CCC(F)(F)F)Oc1c(Br)cccc1Oc1ncc(Cl)cn1 [Example I-31],100,100,,,100,100,100,100,100,90,90,,,,,,,,
CCCCCS(=O)(=O)Oc1ccccc1Oc1ncc(Cl)cn1 [Example I-24],,100,,100,100,100,,90,90,90,100,80,100,,,,,,
Cc1cccc(Oc2ncc(F)cn2)c1OS(=O)(=O)CCC(F)(F)F [Example I-45],100,100,100,100,,100,100,100,100,,,,100,100,100,100,90,,
CCS(=O)(=O)Oc1ccccc1Oc1ncc(Cl)cn1 [Example I-16],100,100,,,100,100,90,90,100,100,100,,90,,,,,,
O=S(=O)(CCCCl)Oc1cccc(F)c1Oc1ncc(Cl)cn1 [Example I-13],100,100,80,80,100,100,,,90,90,100,,,,90,,,,
CC(C)CCS(=O)(=O)Oc1ccccc1Oc1ncc(Cl)cn1 [Example I-25],90,100,,100,100,100,,90,100,100,100,90,100,,100,100,,80,
Cc1cccc(Oc2ncc(Cl)cn2)c1OS(=O)(=O)CC1CC(F)(F)C1 [Example I-74],100,100,,100,100,100,100,100,100,100,100,90,90,,90,,,,90
O=S(=O)(CCC(F)=C(F)F)Oc1c(Cl)cccc1Oc1ncc(Cl)cn1 [Example I-73],100,100,,90,100,90,,90,100,100,100,,,,90,,,,
COCCS(=O)(=O)Oc1c(F)cccc1Oc1ncc(Cl)cn1 [Example I-52],100,90,80,100,,90,100,,,,,,90,80,100,100,,,
C=CCS(=O)(=O)Oc1ccccc1Oc1ncc(Cl)cn1 [Example I-36],100,100,,80,100,100,,,,,90,,,,90,,,,
O=S(=O)(CC1CC1(Cl)Cl)Oc1c(F)cccc1Oc1ncc(Cl)cn1 (stereo not shown) [Example I-57],100,90,,,90,100,90,90,90,90,,,,,,,,,
